Data: doi:10.64898/2026.03.17.711623, “Polypharmacology is an enduring and nearly universal property of kinase inhibitors” (bioRxiv, 2026)

Biological target: T1, YES (Homo sapiens, UniProt P07947)
T1 construct: gene YES1
T1 sequence (P07947 whole entry): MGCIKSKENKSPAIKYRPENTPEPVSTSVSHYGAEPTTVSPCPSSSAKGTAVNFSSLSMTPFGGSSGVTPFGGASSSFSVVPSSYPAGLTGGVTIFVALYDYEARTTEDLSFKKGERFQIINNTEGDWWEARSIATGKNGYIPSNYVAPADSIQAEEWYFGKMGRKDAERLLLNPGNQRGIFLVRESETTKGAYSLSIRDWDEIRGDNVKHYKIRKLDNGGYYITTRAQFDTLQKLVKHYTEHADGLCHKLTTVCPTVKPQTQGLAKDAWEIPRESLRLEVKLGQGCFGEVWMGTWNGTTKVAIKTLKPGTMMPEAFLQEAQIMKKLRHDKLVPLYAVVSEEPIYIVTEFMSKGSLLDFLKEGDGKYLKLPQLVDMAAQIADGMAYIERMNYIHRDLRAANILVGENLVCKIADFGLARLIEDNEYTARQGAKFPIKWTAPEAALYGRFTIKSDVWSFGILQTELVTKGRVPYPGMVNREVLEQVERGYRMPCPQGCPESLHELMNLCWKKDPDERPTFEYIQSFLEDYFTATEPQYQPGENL

- Kd: 423 nM
SMILES: Cc1cc(C(=O)Nc2cc(Oc3ccc4nc(NC(=O)C5CC5)cn4n3)ccc2C)n(C)n1 [HMSL12071, TAK-593]
